1 compound from PMC10746708, “A small molecule iCDM-34 identified by in silico screening suppresses HBV DNA through activation of aryl hydrocarbon receptor” (Cell Death Discovery, 2023) can be followed below.

This assay concerns phospho-SAMHD1. Put plainly: Western blotting of phospho-SAMHD1 in HepG2-NTCP-C4 cells. The following applies: 30 μM, 1 day. In kind it is cell-based, human. The procedure: HepG2-NTCP-C4 cells were treated with 30 μM iCDM-17 and iCDM-34 for 1 day. The cells were lyzed with 20 mM TrisHCl pH 7.5 containing 100 mM NaCl, 10 mM EDTA, 1% TritonX-100, 1% Sodium deoxycholate, PhosSTOP (Roche), Complete EDTA free. The lysates were sonicated 30 s and mixed for 1 h with rotation at 4 °C. The lysates were centrifuged at 15,000 rpm for 10 min at 4 °C. The supernatants were analyzed by Western blotting using anti-phospho-SAMHD1 (Thr592) (Cell signaling technology, 89930, 1/1000), anti-SAMHD1 (Cell signaling technology, 49158, 1/1000), and β−actin (Santa Cruz, 1/1000).
For orientation: In western blotting, separated proteins are transferred to a membrane and probed.

`O=C(Nc1ccc(Br)cc1)c1ccn(Cn2cc([N+](=O)[O-])cn2)n1` [iCDM-34]: the phospho-SAMHD1 levels result is “lower than pre-treatment levels”.
